Earlier results in patent US20080003300A1, “Compostions containing Mg/Zn/F-CaP plus inhibitors of pro-inflammatory Cytokines (a combination of a Free-B-Ring flavonoids and a flavan) for osteoporosis prevention, therapy and treatment of bone diseases” (priority 2006, published 2008).

Key:
[1] = system: COX-2 gene transcription in human colon cancer DLD-1 cells; details: Mutoh et al. (2000)
[2] = system: prostaglandin endoperoxide synthase; details: Kalkbrenner et al. (1992)
COX-2 = biological target: T1, COX-2 (Ovis aries, UniProt P79208); details: Noreen et al. (1998)
T1 sequence (P79208 17-603): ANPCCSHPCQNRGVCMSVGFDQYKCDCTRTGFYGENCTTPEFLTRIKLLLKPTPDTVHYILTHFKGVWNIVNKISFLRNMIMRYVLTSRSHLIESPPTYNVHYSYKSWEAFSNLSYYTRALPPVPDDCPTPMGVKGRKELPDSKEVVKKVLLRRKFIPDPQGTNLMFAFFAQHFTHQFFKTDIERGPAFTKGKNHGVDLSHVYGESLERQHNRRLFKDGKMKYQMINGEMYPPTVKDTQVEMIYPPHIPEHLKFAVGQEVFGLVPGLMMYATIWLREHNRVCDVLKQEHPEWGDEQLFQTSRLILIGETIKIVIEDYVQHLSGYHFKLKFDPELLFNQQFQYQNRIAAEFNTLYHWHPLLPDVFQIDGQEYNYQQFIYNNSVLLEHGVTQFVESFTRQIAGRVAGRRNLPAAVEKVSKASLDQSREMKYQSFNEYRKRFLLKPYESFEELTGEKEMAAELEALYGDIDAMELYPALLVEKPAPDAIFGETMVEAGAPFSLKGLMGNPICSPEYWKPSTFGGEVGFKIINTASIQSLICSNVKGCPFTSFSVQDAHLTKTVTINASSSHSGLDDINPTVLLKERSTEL

| SMILES | IC50 [1] | IC50 [2] | selectivity for COX-2 (COX-2) |
| --- | --- | --- | --- |
| Oc1cc(O)c2c(c1)OC(c1ccc(O)c(O)c1)C(O)C2 (stereo not drawn) [Catechin] | 415 µM | 40 µM | – |
| Oc1cc(O)c2c(c1)O[C@H](c1ccc(O)c(O)c1)[C@@H](O)C2 [(+)-catechin] | – | – | no selectivity for COX-2 |
